Reference: the supplement of paper PMC10307832

Tests used:
Assay in all cases: relative viability (nuclei count vs DMSO), 5 days (fraction); higher = more cells survive
Metformin + Luminespib = compound: CN(C)C(=N)NC(=N)N [Metformin] + CCNC(=O)c1noc(-c2cc(C(C)C)c(O)cc2O)c1-c1ccc(CN2CCOCC2)cc1 [Luminespib] (partner 0.01 µM)
Method in brief: (§1)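 After 5 days of treatment, lung cancer cells in 1536-well plates were fixed and stained in a single step (final 0.05% Triton X-100, 1% formaldehyde, 1 ug/ml Hoechst) and their nuclei counted on 4× images. Treatment had been applied by pin tool the day after seeding as one drug alone or as a fixed anchor-drug dose with five library-drug doses (not always all listed) in √10 steps. Relative viability is the nuclei count of treated wells divided by that of vehicle wells, and values are medians of duplicate plates.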

Metformin + Pictilisib = compound: CN(C)C(=N)NC(=N)N [Metformin] + CS(=O)(=O)N1CCN(Cc2cc3nc(-c4cccc5[nH]ncc45)nc(N4CCOCC4)c3s2)CC1 [Pictilisib] (partner 1 µM)
Method in brief: as §1

Apatinib + OSI-027 = compound: N#CC1(c2ccc(NC(=O)c3cccnc3NCc3ccncc3)cc2)CCCC1 [Apatinib] + COc1cccc2cc(-c3nc([C@H]4CC[C@H](C(=O)O)CC4)n4ncnc(N)c34)[nH]c12 [OSI-027] (partner 0.5 µM)
Method in brief: as §1

Apatinib + AZD7762 = compound: N#CC1(c2ccc(NC(=O)c3cccnc3NCc3ccncc3)cc2)CCCC1 [Apatinib] + NC(=O)Nc1cc(-c2cccc(F)c2)sc1C(=O)N[C@H]1CCCNC1 [AZD7762] (partner 0.2 µM)
Method in brief: as §1

Cell Line	relative viability (Metformin + Luminespib; first compound 10 µM)	relative viability (Metformin + Luminespib; first compound 100 µM)	relative viability (Metformin + Luminespib; first compound 316.23 µM)	relative viability (Metformin + Luminespib; first compound 1000 µM)	relative viability (Metformin + Pictilisib; first compound 10 µM)	relative viability (Metformin + Pictilisib; first compound 31.62 µM)	relative viability (Metformin + Pictilisib; first compound 100 µM)	relative viability (Metformin + Pictilisib; first compound 316.23 µM)	relative viability (Metformin + Pictilisib; first compound 1000 µM)	relative viability (Apatinib + OSI-027; first compound 0.08 µM)	relative viability (Apatinib + OSI-027; first compound 0.253 µM)	relative viability (Apatinib + OSI-027; first compound 0.8 µM)	relative viability (Apatinib + OSI-027; first compound 2.53 µM)	relative viability (Apatinib + OSI-027; first compound 8 µM)	relative viability (Apatinib + AZD7762; first compound 0.08 µM)	relative viability (Apatinib + AZD7762; first compound 0.253 µM)	relative viability (Apatinib + AZD7762; first compound 0.8 µM)	relative viability (Apatinib + AZD7762; first compound 2.53 µM)	relative viability (Apatinib + AZD7762; first compound 8 µM)	relative viability (Metformin + Luminespib; first compound 31.62 µM)
NCI-H1793	0.22	0.147	0.16	0.235	0.29	0.399	0.304	0.268	0.38	0.282	0.25	0.268	0.222	0.175	0.669	0.41	0.257	0.209	0.116	
NCI-H1437	1.15	1.19	1.08	1.12	0.671	0.729	0.406	0.629	0.757	0.84	0.954	0.861	0.615	0.645	1.07	1.12	1.02	1.04	0.812	1.16
SW 1573	0.266	0.51	0.157	0.153	0.534	0.42	0.521	0.498	0.497	0.71	0.636	0.553	0.593	0.518						0.255
SW 900	0.152	0.179	0.192	0.214						0.563	0.605	0.497	0.545	0.412	0.656	0.587	0.563	0.374	0.401	0.177
IA-LM					0.337	0.462	0.41	0.38	0.303											
NCI-H661	0.844	0.876	0.807	0.354	0.406	0.464	0.485	0.552	0.518	0.678	0.603	0.693	0.705	0.603						0.837
SK-LU-1	0.204	0.221	0.204	0.244	0.543	0.554	0.674	0.685	0.719	0.326	0.395	0.298	0.303	0.246						0.204
HCC-366					0.141	0.213	0.138	0.115	0.185	1.06	0.88	0.815	0.744	0.494	0.283	0.457	0.135	0.128	0.0774	
NCI-H2342	0.687	0.726	0.731	0.71						0.579	0.573	0.626	0.529	0.518	0.454	0.464	0.536	0.385	0.353	0.706
NCI-H1648										0.272	0.253	0.265	0.267	0.261	0.937	0.667	0.612	0.567	0.601	
EBC-1					0.508	0.444	0.467	0.306	0.313											
COR-L23	0.635	0.593	0.495	0.302	0.756	0.886	0.754	0.707	0.759	0.844	0.792	0.673	0.669	0.6						0.655
